Measurements from patent US5880146A, “Inhibition of IL-12-induced IFN-γ synthesis by specific bis-phenol compounds as a method of immune modulation” (Fuji ImmunoPharmaceuticals Corporation, priority 1995, dated 1999).

How the values were obtained:
[1] = test system: IL-12 induction of IFN-γ in PHA-activated human PBMC; test: Screening assay for compounds which inhibit IL-12 induction of IFN-γ (ELISA); type: cell-based; settings: 5 μg/ml, IL-2 25 U/ml + IL-12 0.5 ng/ml, 48 hr, single test, read-out: % INH of IFNγ
Procedure: Human peripheral blood monocytes (PBMC) were obtained from commercial sources as a leukophoresis from a healthy volunteer and were purified by centrifugation on a Ficoll-Hypaque (Pharmacia) gradient (1700 rpm for 20 min). The "buffy" coat containing the PBMC was diluted with serum-free culture medium (SF-RPMI) to a volume of 50 ml and collected by centrifugation at 1500 rpm for 5 min. Cells were resuspended in cell culture medium containing 10% fetal bovine serum (RPMI-10) and phytohemaglutinin (PHA - 10 μg/ml) at a density of 5×10^6 cells/ml and were cultured for 3 days at 37° C. in a humidified CO2 incubator. The PHA-activated cells were collected by centrifugation, washed three times with an equal volume of SF-RPMI and resuspended in fresh RPMI-10 (1×10^6 cells /ml). Aliquots (100 μl) were dispensed into the wells of multiple 96-well plates to give a final cell number of 10^5 per well. Test compounds, dissolved in dimethyl sulfoxide (DMSO) at 1 mg/ml, were first diluted in culture medium to an intermediate concentration of 20 μg/ml and then were added (50 μwell) to a specific well of the plate for each compound. Stimulation medium (50 μl/well) containing 10% serum, IL-2 and IL-12 was added to final concentrations of 25 U/ml and 0.5 ng/ml, respectively. Control wells receive no IL-2 or IL-12 (negative control) or received both interleukins but no test compound (positive control). The plates were incubated for 48 hr at 37° C. in a CO2 incubator at which time aliquots (20 μl) were removed for analysis of IFN-γ concentration by ELISA. A quantitative ELISA was developed by coating 96-well plates with an mouse monoclonal antibody against human IFN-γ, 1 μg/ml in phosphate buffered saline (PBS) (Pestka Biological Laboratories), overnight at 4° C. Unbound antibody was washed off by washing three times with PBS. Non-specific antibody binding was blocked with a solution of 1% bovine serum albumin (BSA) and 1% goat serum in PBS (150 μl/well) which was incubated for 2 hr at 37° C. After washing the blocked plates four times with PBS, test samples and dilutions of the IFN-γ standard are added in a final volume of 100 μl/well. Following an overnight incubation at 4° C., the plates are washed four times with PBS, and a polyclonal rabbit antiserum against human IFN-γ (1/10000 dilution--Petska Biological Laboratories) is added. After an additional incubation for 1 hr at 37° C. and four washes with PBS, a polyclonal donkey anti-rabbit detecting antibody, conjugated to horseradish peroxidase (1/700 dilution--Petska Biological Laboratories) is added for 1 hr at 37° C. The plates are then washed four times with PBS and 100 μl of K-blue substrate E(ILISA Technologies, Neogen Corp.) is added until the color in the wells containing the standard curve is sufficiently developed, at which time 100 μl of "Red-stop" solution (ELISA Technologies) is added. The absorbance of the solution within each well of the plate is then read at 650 nm using an ELISA plate reader (Dynatech MR7000). The amount of IFN-γ is calculated by comparing the optical density of the test sample with a standard curve derived from the dilutions of the control IFN-y. The amount of IFN-γ that is induced in the presence of both IL-2 and IL-12 generally ranges from 1200-2000 pg/ml while the amount produced in the absence of IL-12 is generally less than 50 pg/ml. Experimental data are shown in Table 2 which discloses a) the percent inhibition of IFNγ production, relative to a […], when the cells have been treated with a bis-compound at a final concentration of 5 μg/ml of the listed bis-compound (%INH or IFNγ) and b) the percent of cells which are viable after the treatment with 5 μg/ml of the various bis-compounds, determined by adding MTS to the media (% Viability). MTS is a chemical chromophore that is metabolized in the mitochondria of viable cells to produce a color which increases in intensity in proportion to the numbers of viable cells. […]

[2] = Toxicity of bis-compounds after single systemic dose; type: in vivo; settings: mouse, in vivo, iv, 20% DMSO, 16% cremaphor, single dose
mice = test: as above; type: in vivo; settings: 20% DMSO, 16% cremaphor

Structure (SMILES) | inhibition at 5 µg/mL [1] [%] | LD50 ([2]; conc. sol. 10 mg/ml) [mg/kg] | LD50 ([2]; conc. sol. 15 mg/ml) [mg/kg] | Results (Dead/Alive) (mice; 100 mg/kg IV, 10 mg/ml) | Results (Dead/Alive) (mice; 150 mg/kg IV, 10 mg/ml) | Results (Dead/Alive) (mice; 150 mg/kg IV, 15 mg/ml) | Results (Dead/Alive) (mice; 200 mg/kg IV, 15 mg/ml)
CCCCCCCC(c1cc(C)cc(C)c1O)c1cc(C)cc(C)c1O [Compound 51852] | 109 | – | – | – | – | – | –
Cc1cc(C)c(O)c(C(CC(C)CC(C)(C)C)c2cc(C)cc(C)c2O)c1 (centres unmarked) [Compound 51853, bis-1,1-[2-hydroxy-3,5-dimethylphenyl]-3,5,5-dimethyl hexan] | 104 | 100 to 150 | > 200 | Alive | Dead | Alive | Alive
